Measured values taken from PMC12529149, “Chemical and Antiplasmodial Investigations on Carapa-Derived Gedunin Derivatives and Semisynthetic 6- and 7‑Substituted Gedunin Analogues from the Brazilian Amazon” (ACS Omega, 2025).
pIC50: −log10 of the molar value. “And” between values parts separate entries of the source, which are not always exact repeats. Equal values may be shown once. Where a name gives a salt, the structure may show the parent alone. Read-outs that look alike come from different tables or passages of the source.

How the values were obtained:
P. falciparum = system: P. falciparum; parameters: method as in literature (number not shown); conditions: strain not stated, ref literature (number not shown), cited from earlier work
[1] = parameters: method as in literature (number not shown); conditions: low pH similar to mouse and human stomachs; ref literature (number not shown); cited from earlier work
Plasmodium berghei = conditions: oral, 50 mg/kg/day together with dillapiole 25 mg/kg/day (binary treatment), mice; ref literature (numbers not shown); cited from earlier work
P. falciparum D6 strain = system: P. falciparum D6 strain; parameters: method as in literature (numbers not shown); conditions: ref literature (numbers not shown); cited from earlier work
P. falciparum W2 strain = system: P. falciparum W2 strain; parameters: method as in literature (numbers not shown); conditions: ref literature (numbers not shown); cited from earlier work
[2] = system: P. falciparum FCR3 strain; parameters: method as in literature (numbers not shown); conditions: ref literature (numbers not shown); cited from earlier work
[3] = system: mouse mammary carcinoma (FM3A) cell cultures; parameters: method as in literature (number not shown); conditions: ref literature (number not shown); cited from earlier work
[4] = system: K1 strain of Plasmodium falciparum; assay: In vitro susceptibility assay (microtest), P. falciparum K1 growth inhibition; type: cell-based; conditions: for IC50: Plasmodium falciparum, K1, 48 h
Procedure: In vitro culture of the K1 strain of P. falciparum (MRA-159, MR4, ATCC, Manassas, Virginia, USA) proceeded following an established method with modifications. Briefly, this method involved the growth of parasites in human type A+ red blood cells and RPMI 1640 medium supplemented with 10% type A+ human plasma at 37 °C under an atmosphere of 5% O2, 5% CO2, and 90% N2.
As initial condition for the susceptibility assay, cultures were synchronized by treatment with 5% D-sorbitol, which provided young trophozoites (ring stages). Performance of the microtest followed a previously described procedure with modifications. Compounds were dissolved in DMSO with the aid of an ultrasound bath to provided stock solutions. […] These diluted samples were evaluated in duplicate in a 96-well test plate. A suspension of parasitized red blood cells (pRBCs) at 2% hematocrit and 1% parasitemia was added to each well. Microplate incubation proceeded for 48 h at 37 °C under the same atmosphere used for parasite culture in two independent experiments conducted on different days. Control wells contained chloroquine (0.003–2.5 μg/mL) and quinine (0.003–2.5 μg/mL). Six (6) control (blank) wells were prepared with pRBCs suspension. Six cosolvent control wells were prepared with 1% DMSO and pRBCs suspension. An average of these 12 controls defined drug-free (untreated) growth. After the incubation period, thin blood smears of the contents of each well were prepared on microscope slides. Optical microscopy was used to analyze the blood smears and establish the parasitemia of each well. Interpolation of the nonlinear curve using GraphPad Prism permitted the calculation of estimates of the sample concentrations able to inhibit 50% of parasite growth (IC50) compared to drug-free controls.

[5] = system: variety of P. falciparum strains; conditions: cited from earlier work
MRC-5 human fibroblasts = assay: Cytotoxicity/cell viability assay (Alamar blue); type: cell-based; conditions: read-out: fibroblasts IC50
Procedure: Medical Research Council cell strain 5 (MRC-5) human fetal fibroblasts were cultivated in Dulbecco′s modified Eagle’s medium (DMEM) supplemented with 10% bovine fetal serum and 1% antibiotic at 37 °C under an atmosphere of 5% CO2. Cell viability assessment relied on the Alamar blue method. […] Doxorubicin at concentrations of 0.312, 0.625, 1.25, 2.50, 5.00, 10.0, and 20.0 μM was used as a positive control for cell death. The negative control wells received DMSO (sample diluent) at 0.1%. In preparation for the assay, this method involved plating 0.5 × 10^4 cells/well on 96 well test plates and incubating for 24 h under the same conditions used for cell culture. This initial 24 h period was necessary for cell adhesion. The assay consisted of triplicate addition of diluted samples and controls to wells followed by 48 h of incubation. For quantification of viable cells, 10 μL of 0.4% Alamar blue (Sigma-Aldrich)–which works out to an in-well concentration of 0.02%–were added to each well 3 h before the end of the treatment. Alamar blue was allowed to react for 3 h followed by quantification of the optical density (OD) of each well at an excitation wavelength of 465 nm and emission wavelength of 540 nm using an ELISA plate reader (DTX-800, Beckman Coulter). Comparison of individual sample viability OD to that of controls (blanks) afforded the cell viability. Interpolation of the nonlinear curve using GraphPad Prism software permitted the calculation of estimates of the sample IC50 values compared to drug-free controls.

[6] = system: P. falciparum K1 strain vs MRC-5 human fibroblasts; assay: Selectivity index, IC50 (human fibroblasts) ÷ IC50 (P. falciparum); type: cell-based, Plasmodium falciparum
Text: Calculation of the selectivity index (SI) using the following formula afforded the relative toxicity of each sample to human fibroblasts and to P. falciparum blood stages: SI = IC50 (human fibroblasts) ÷ IC50 (P. falciparum).

P. falciparum K1 strain = system: P. falciparum K1 strain; parameters: method as in earlier work; conditions: ref previous reports incl. authors' earlier work (numbers not shown); cited from earlier work
[7] = read-out: P. falciparum IC50 (CI95), K1 strain, 48 h, CI95 in brackets
[8] = MRC5, MRC-5, tested at 50 μg/mL for 48 h
[9] = K1 strain, 48 h, CI95 in brackets, read-out: P. falciparum IC50 (CI95)

7-deacetyl-7α-methoxygedunin [reference compound]
pIC50 (P. falciparum; read-out: IC50, P. falciparum in vitro): 5.77 to 5.80
stability at low pH [1]: good stability at low pH
suppression of P. berghei vs untreated controls (Plasmodium berghei): 68–81%

CC(=O)O[C@@H]1C[C@H]2C(C)(C)C(=O)C=C[C@]2(C)[C@H]2CC[C@@]3(C)[C@H](c4ccoc4)OC(=O)[C@H]4O[C@]43[C@@]21C (single isomer, unassigned) [(−)-gedunin, reference compound]
pIC50 (P. falciparum D6 strain): 6.20 to 7.09
pIC50 (P. falciparum W2 strain): 6.19 to 7.39
pIC50 (P. falciparum; 48 h, read-out: IC50 after 48 h): 6.00
pIC50 (P. falciparum; 96 h, read-out: IC50 after 96 h): 6.52

CC(=O)O[C@H]1[C@@H](O)[C@]2(C)[C@H](CC[C@@]3(C)[C@H](c4ccoc4)OC(=O)[C@H]4O[C@@]423)[C@@]2(C)C=CC(=O)C(C)(C)[C@H]12 [6α-acetoxy-7-deacetylgedunin, reference compound]
pIC50 [2]: 5.40

CC(=O)O[C@H]1[C@@H](OC(C)=O)[C@]2(C)[C@H](CC[C@@]3(C)[C@H](c4ccoc4)OC(=O)[C@H]4O[C@@]423)[C@@]2(C)C=CC(=O)C(C)(C)[C@H]12 [6α-acetoxygedunin]
toxicity to FM3A cells [3]: toxic
pIC50 [2]: 5.55

CCN(CC)CCCC(C)Nc1ccnc2cc(Cl)ccc12 (stereo not shown) [chloroquine diphosphate, reference compound]
IC50 ([4]; read-out: P. falciparum IC50 (CI95)): 0.18 µg/mL and 350 nM

CC1(C)C(=O)C=C[C@]2(C)[C@H]3CC[C@@]4(C)[C@H](c5ccoc5)OC(=O)[C@H]5O[C@]54[C@]3(C)C(=O)C[C@@H]12 [compound 1, 7-Deacetyl-7-oxogedunin]
pIC50 (P. falciparum D6 strain): < 4.68
toxicity to FM3A cells [3]: toxic
pIC50 ([5]; FCR3 and INDO strains, ref previous reports (numbers not shown), read-out: IC50): 5.12 to 5.60
pIC50 (P. falciparum W2 strain): < 4.68

CC1(C)C(=O)C=C[C@]2(C)[C@H]3CC[C@@]4(C)[C@H](c5ccoc5)OC(=O)[C@H]5O[C@]54[C@]3(C)[C@H](O)C[C@@H]12 [compound 2, 7-deacetylgedunin]
pIC50 (MRC-5 human fibroblasts; MRC5, 48 h): < 3.96
pIC50 ([5]; variety of strains (3D7, D6, D10, W2, INDO), ref several previous reports (numbers not shown), read-out: IC50, in vitro growth): 5.23 to 5.89
selectivity index (SI) [6]: >8.5
pIC50 (P. falciparum K1 strain): 5.51
stability at low pH [1]: react at low pH
IC50 [4, 7]: 5.9 µg/mL
pIC50 [4, 7]: 4.89

CC1(C)C(=O)C=C[C@]2(C)[C@H]3CC[C@@]4(C)[C@H](c5ccoc5)OC(=O)[C@H]5O[C@]54[C@]3(C)[C@@H](O)C[C@@H]12 [compound 3, 7-deacetyl-7-epi-gedunin]
pIC50 (MRC-5 human fibroblasts; MRC5, 48 h): < 3.96
selectivity index (SI) [6]: >15
IC50 [4, 7]: 3.4 µg/mL and 7.8 µM

CC(=O)O[C@H]1C[C@H]2C(C)(C)C(=O)C=C[C@]2(C)[C@H]2CC[C@@]3(C)[C@H](c4ccoc4)OC(=O)[C@H]4O[C@]43[C@]12C [compound 5, 7-epi-gedunin]
pIC50 (MRC-5 human fibroblasts; [8]): < 4.00
selectivity index (SI) [6]: >45
IC50 [4, 9]: 1.1 µg/mL and 2.3 µM

CCCC(=O)O[C@@H]1C[C@H]2C(C)(C)C(=O)C=C[C@]2(C)[C@H]2CC[C@@]3(C)[C@H](c4ccoc4)OC(=O)[C@H]4O[C@]43[C@@]21C [compound 6, 7-deacetyl-7-butanoylgedunin]
pIC50 (MRC-5 human fibroblasts; MRC5, 48 h): < 4.01
selectivity index (SI) [6]: >21
IC50 [4, 7]: 2.4 µg/mL and 4.7 µM

CCCC(=O)O[C@H]1C[C@H]2C(C)(C)C(=O)C=C[C@]2(C)[C@H]2CC[C@@]3(C)[C@H](c4ccoc4)OC(=O)[C@H]4O[C@]43[C@]12C [compound 7, 7-deacetyl-7-butanoyl-7-epi-gedunin]
pIC50 (MRC-5 human fibroblasts; MRC5, 48 h): < 4.01
selectivity index (SI) [6]: >21
IC50 [4, 7]: 2.4 µg/mL and 4.7 µM

CCCCC(=O)O[C@@H]1C[C@H]2C(C)(C)C(=O)C=C[C@]2(C)[C@H]2CC[C@@]3(C)[C@H](c4ccoc4)OC(=O)[C@H]4O[C@]43[C@@]21C [compound 8, 7-deacetyl-7-pentanoylgedunin]
pIC50 (MRC-5 human fibroblasts; [8]): < 4.02
selectivity index (SI) [6]: >12
IC50 [4, 9]: 4.2 µg/mL and 8 µM

CCCCC(=O)O[C@H]1C[C@H]2C(C)(C)C(=O)C=C[C@]2(C)[C@H]2CC[C@@]3(C)[C@H](c4ccoc4)OC(=O)[C@H]4O[C@]43[C@]12C [compound 9, 7-deacetyl-7-pentanoyl-7-epi-gedunin]
pIC50 (MRC-5 human fibroblasts; [8]): < 4.02
selectivity index (SI) [6]: >14
IC50 [4, 9]: 3.7 µg/mL and 7 µM

CC1(C)C(=O)C=C[C@]2(C)[C@H]3CC[C@@]4(C)[C@H](c5ccoc5)OC(=O)[C@H]5O[C@]54[C@]3(C)[C@H](O)[C@H](O)[C@@H]12 [compound 10, 7-deacetyl-6α-hydroxygedunin]
pIC50 (MRC-5 human fibroblasts; [8]): < 4.00
selectivity index (SI) [6]: >16
pIC50 (P. falciparum K1 strain): 5.30
IC50 [4, 9]: 2.8 µg/mL and 6.1 µM

CC(=O)O[C@@H]1[C@H](O)[C@H]2C(C)(C)C(=O)C=C[C@]2(C)[C@H]2CC[C@@]3(C)[C@H](c4ccoc4)OC(=O)[C@H]4O[C@]43[C@]12C [compound 11, 6α-hydroxygedunin]
pIC50 (MRC-5 human fibroblasts; [8]): < 3.96
pIC50 [2]: 4.05
selectivity index (SI) [6]: >26
IC50 [4, 9]: 2.2 µg/mL and 4.4 µM

CCCC(=O)O[C@H]1[C@@H](O)[C@]2(C)[C@H](CC[C@@]3(C)[C@H](c4ccoc4)OC(=O)[C@H]4O[C@@]423)[C@@]2(C)C=CC(=O)C(C)(C)[C@H]12 [compound 13, 7-deacetyl-6α-butanoyloxygedunin]
pIC50 (MRC-5 human fibroblasts; [8]): < 4.00
selectivity index (SI) [6]: >15
IC50 [4, 9]: 3.7 µg/mL and 7.1 µM

CC1(C)C(=O)C=C[C@]2(C)[C@H]3CC[C@@]4(C)[C@H](c5ccoc5)OC(=O)[C@H]5O[C@]54[C@]3(C)[C@H](O)[C@H](OC(=O)c3ccccc3)[C@@H]12 [compound 14, 7-deacetyl-6α-benzoxygedunin]
pIC50 (MRC-5 human fibroblasts; [8]): < 3.96
selectivity index (SI) [6]: >11
IC50 [4, 9]: 5.1 µg/mL and 10 µM

CCCCCCC(=O)O[C@H]1[C@@H](O)[C@]2(C)[C@H](CC[C@@]3(C)[C@H](c4ccoc4)OC(=O)[C@H]4O[C@@]423)[C@@]2(C)C=CC(=O)C(C)(C)[C@H]12 [compound 15, 7-deacetyl-6α-heptanoyloxygedunin]
pIC50 (MRC-5 human fibroblasts; [8]): < 4.06
selectivity index (SI) [6]: >9.4
IC50 [4, 9]: 5.4 µg/mL and 9.4 µM

CC1(C)[C@H](O)CC[C@]2(C)[C@H]3CC[C@@]4(C)[C@H](c5ccoc5)OC(=O)[C@H]5O[C@]54[C@]3(C)[C@@H](O)C[C@@H]12 [compound 16, 7-deacetyl-3-deoxo-1,2-dihydro-3α-hydroxy-7-epi-gedunin]
pIC50 (MRC-5 human fibroblasts; [8]): < 3.96
selectivity index (SI) [6]: >3.2
IC50 [4, 9]: 16 µg/mL

C=C[C@H]1C[N@@]2CC[C@H]1C[C@H]2[C@H](O)c1ccnc2ccc(OC)cc12 [quinine hydrochloride, reference compound]
IC50 [4, 9]: 0.14 µg/mL and 350 nM
